Laboratory results: patent US10022387B2, “Aza-heteroaryl compounds as PI3K-gamma inhibitors” (Incyte Corporation, priority 2015, dated 2018)
Where a name gives a salt, the structure may show the parent alone.

test system: Phosphorylated Ribosomal Protein S6 (RPS6) in THP-1 cells; assay: THP-1 RPS6 ELISA Assay; format: cell-based; conditions: Homo sapiens, 2 hours with compound, 10 nM MCP-1 for 15 minutes, read-out: THP p-RPS6 ELISA IC50
Method: To measure the Phosphorylated Ribosomal Protein S6 (RPS6) in cell lysates, THP-1 cells (Human Acute Monocytic Leukemia) are purchased from ATCC (Manassas, Va.) and maintained in RPMI with 10% FBS (Gibco/Life Technologies, Carlsbad, Calif.). For the assay, THP-1 cells are serum starved overnight in RPMI, then plated in RPMI (2×10^5 cells/well in 90 μL) into 96-well flat-bottom tissue culture treated plates (Corning, Corning, N.Y.), in the presence or absence of a concentration range of test compounds. Covered plates are incubated for 2 hours at 37° C., 5% CO2 then treated with or without 10 nM MCP-1 (MYBioSource, San Diego, Calif.) for 15 minutes at 37° C., 5% CO2. Plates are centrifuged at 1600 RPM and supernatants are removed. Cells are lysed in Lysis Buffer (Cell Signaling, Danvers, Mass.) with Protease Inhibitor (Calbiochem/EMD, Germany), PMSF (Sigma, St. Louis, Mo.), HALTS (Thermo Fisher, Rockford, Ill.) for 30 min on wet ice. Cell lysates are frozen at −80° C. before testing. The lysates are tested in the Human/Mouse/Rat Phospho-RPS6 ELISA (R&D Systems, Inc. Minn, Minn.). The plate is measured using a microplate reader (SpectraMax M5—Molecular Devices, LLC Sunnyvale, Calif.) set to 450 nm with a wavelength correction of 540. IC50 determination is performed by fitting the curve of inhibitor percent inhibition versus the log of the inhibitor concentration using the GraphPad Prism 5.0 software.

SMILES | IC50 [µM]
CCS(=O)(=O)Nc1cc(-c2ccc3nc(-c4nc5ccccc5[nH]4)oc3c2)cnc1F [Example 27, N-(5-(2-(1H-Benzo[d]imidazol-2-yl)benzo[d]oxazol-6-yl)-2-fluoropyridin-3-yl)ethanesulfonamide] | < 1
CCCc1nc(-c2nc3ccc(-c4cncc(NS(=O)(=O)CC)c4)cc3o2)[nH]c1C [Example 64, N-(5-(2-(5-Methyl-4-propyl-1H-imidazol-2-yl)benzo[d]oxazol-6-yl)pyridin-3-yl)ethanesulfonamide bis(trifluoroacetate)] | ≥ 5
CN(C)S(=O)(=O)c1cncc(-c2ccc3nc(-c4nc5ccccc5[nH]4)oc3c2)c1 [Example 37, 5-[2-(1H-benzimidazol-2-yl)-1,3-benzoxazol-6-yl]-N,N-dimethylpyridine-3-sulfonamide] | < 5
CN(C)S(=O)(=O)Nc1cncc(-c2ccc3nc(-c4nc5ccccc5[nH]4)oc3c2)c1 [Example 21, N′-{5-[2-(1H-Benzimidazol-2-yl)-1,3-benzoxazol-6-yl]-pyridin-3-yl}-N,N-dimethylsulfamide] | < 1
Cc1n[nH]c2ccc(-c3ccc4nc(-c5nc6ccccc6[nH]5)oc4c3)cc12 [Example 50, 2-(1H-Benzimidazol-2-yl)-6-(3-methyl-1H-indazol-5-yl)-1,3-benzoxazole] | ≥ 5
CN(C)S(=O)(=O)Nc1cncc(-c2ccc3nc(-c4ncc[nH]4)oc3c2)c1 [Example 41, N′-{5-[2-(1H-Imidazol-2-yl)-1,3-benzoxazol-6-yl]pyridin-3-yl}-N,N-dimethylsulfamide] | < 1
Cc1ncc(-c2ccc3nc(-c4nc5ccccc5[nH]4)oc3c2)cc1NS(=O)(=O)c1ccc(F)cc1 [Example 28, N-(5-(2-(1H-Benzo[d]imdiazol-2-yl)benzo[d]oxazol-6-yl)-2-methylpyridin-3-yl)-4-fluorobenzene-sulfonamide] | < 1
COc1cncc(-c2ccc3nc(-c4nc5ccccc5[nH]4)oc3c2)c1 [Example 4, 2-(1H-Benzo[d]imidazol-2-yl)-6-(5-methoxypyridin-3-yl)benzo[d]oxazole trifluoroacetate] | < 5
CCS(=O)(=O)Nc1cc(-c2ccc3nc(-c4nc(C)c(C)[nH]4)oc3c2)cnc1OC [Example 65, N-(5-(2-(4,5-Dimethyl-1H-imidazol-2-yl)benzo[d]oxazol-6-yl)-2-methoxypyridin-3-yl)ethanesulfonamide bis(trifluoroacetate)] | < 1

Next, values leading:

IC50 [µM] | SMILES
< 5 | O=S(=O)(Nc1cncc(-c2ccc3nc(-c4nc5ccccc5[nH]4)oc3c2)c1)N1CCCCC1 [Example 20, N-(5-(2-(1H-Benzo[d]imidazol-2-yl)benzo[d]oxazol-6-yl)pyridin-3-yl)piperidine-1-sulfonamide]
< 1 | Cc1ncc(-c2ccc3nc(-c4nc5ccccc5[nH]4)oc3c2)cc1NS(=O)(=O)N(C)C [Example 22, N′-{5-[2-(1H-Benzimidazol-2-yl)-1,3-benzoxazol-6-yl]-2-methylpyridin-3-yl}-N,N-dimethylsulfamide]
≥ 5 | O=S(=O)(c1cncc(-c2ccc3nc(-c4nc5ccccc5[nH]4)oc3c2)c1)N1CCC(O)C1 (stereo not drawn) [Example 58, 1-({5-[2-(1H-Benzimidazol-2-yl)-1,3-benzoxazol-6-yl]pyridin-3-yl}sulfonyl)pyrrolidin-3-ol bis(trifluoroacetate)]
< 1 | O=S(=O)(Nc1cncc(-c2ccc3nc(-c4nc5ccccc5[nH]4)oc3c2)c1)c1ccc(F)cc1 [Example 17, N-(5-(2-(1H-Benzo[d]imidazol-2-yl)benzo[d]oxazol-6-yl)pyridin-3-yl)-4-fluorobenzenesulfonamide]
< 5 | CS(=O)(=O)c1cncc(-c2ccc3nc(-c4nc5ccccc5[nH]4)oc3c2)c1 [Example 36, 2-(1H-Benzo[d]imidazol-2-yl)-6-(5-(methylsulfonyl)pyridin-3-yl)benzo[d]oxazole]
≥ 5 | COc1cc(-c2ccc3nc(-c4nc5ccccc5[nH]4)oc3c2)cnc1F [Example 69, 2-(1H-Benzo[d]imidazol-2-yl)-6-(6-fluoro-5-methoxypyridin-3-yl)benzo[d]oxazole bis(trifluoroacetate)]
